Reference: PubChem BioAssay (NCI)
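How tested: cells in 96-well plates exposed to compound for 48 hours at five concentrations. TGI: concentration producing complete growth inhibition.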

Tests used:
Assay in all cases: DTP human tumour cell line panel, 48 h
[1] = system: KM20L2 colon
[2] = system: DLD-1 colon
[3] = system: UO-31 renal
[4] = system: OVCAR-5 ovarian
[5] = system: XF 498 CNS
[6] = system: HCC-2998 colon
[7] = system: HOP-92 NSCLC
[8] = system: CCRF-CEM leukemia
[9] = system: SNB-19 CNS
[10] = system: DMS 273 small cell lung
[11] = system: U251 CNS
[12] = system: MOLT-4 leukemia
[13] = system: SNB-78 CNS
[14] = system: UACC-62 melanoma
[15] = system: 786-0 renal
[16] = system: DMS 114 small cell lung
[17] = system: HL-60(TB) leukemia
[18] = system: SN12C renal
[19] = system: M14 melanoma
[20] = system: EKVX NSCLC
[21] = system: NCI-H460 lung
[22] = system: NCI-H226 lung
[23] = system: HOP-62 NSCLC
[24] = system: SK-OV-3 ovarian
[25] = system: TK-10 renal
[26] = system: NCI-H23 lung
[27] = system: SF-268 CNS
[28] = system: UACC-257 melanoma
[29] = system: M19-MEL melanoma
[30] = system: CAKI-1 renal
[31] = system: RXF-631 renal
[32] = system: SK-MEL-5 melanoma
[33] = system: SR leukemia
[34] = system: SNB-75 CNS
[35] = system: MALME-3M melanoma
[36] = system: SK-MEL-2 melanoma
[37] = system: OVCAR-3 ovarian
[38] = system: HCT-116 colon
[39] = system: LOX IMVI melanoma
[40] = system: HOP-18 NSCLC
[41] = system: SF-539 CNS
[42] = system: K-562 leukemia
[43] = system: KM12 colon
[44] = system: OVCAR-8 ovarian
[45] = system: HCT-15 colon
[46] = system: OVCAR-4 ovarian
[47] = system: IGROV1 ovarian
[48] = system: HT29 colon
[49] = system: SF-295 CNS
[50] = system: SK-MEL-28 melanoma
[51] = system: RXF 393 renal
[52] = system: ACHN renal
[53] = system: SW-620 colon
[54] = system: A549 NSCLC
[55] = system: LXFL 529 NSCLC
[56] = system: COLO 205 colon
[57] = system: A498 renal
[58] = system: NCI-H522 lung
[59] = system: RPMI-8226 leukemia

Cc1cc(C)c([O-])c(-[n+]2c(-c3ccccc3)cc(-c3ccccc3)cc2-c2ccccc2)c1
TGI [1]: 12.9 µM | TGI [2]: 16.7 µM | TGI [3]: 33.7 µM | TGI [4]: 18.4 µM | TGI [5]: 6.21 µM | TGI [6]: 13.6 µM | TGI [7]: 5.48 µM | TGI [8]: 10.1 µM | TGI [9]: 21 µM | TGI [10]: 12.1 µM | TGI [11]: 14.9 µM | TGI [12]: > 100 µM | TGI [13]: 27.7 µM | TGI [14]: 12.5 µM | TGI [15]: 19.7 µM | TGI [16]: 12.3 µM | TGI [17]: 4.16 µM | TGI [18]: 18.5 µM | TGI [19]: 18.3 µM | TGI [20]: 21.4 µM | TGI [21]: 15.8 µM | TGI [22]: 24.9 µM | TGI [23]: 22.8 µM | TGI [24]: 27.2 µM | TGI [25]: 19.4 µM | TGI [26]: 13.7 µM | TGI [27]: 21.5 µM | TGI [28]: 10.1 µM | TGI [29]: 13.2 µM | TGI [30]: 22.1 µM | TGI [31]: 26.4 µM | TGI [32]: 5.71 µM | TGI [33]: 11.8 µM | TGI [34]: 17.5 µM | TGI [35]: 16.7 µM | TGI [36]: 10.2 µM | TGI [37]: 12 µM | TGI [38]: 10.9 µM | TGI [39]: 11.1 µM | TGI [40]: 16.2 µM | TGI [41]: 26.9 µM | TGI [42]: > 100 µM | TGI [43]: 13.1 µM | TGI [44]: 17.7 µM | TGI [45]: 25.4 µM | TGI [46]: 18.5 µM | TGI [47]: 19.9 µM | TGI [48]: 12.2 µM | TGI [49]: 17.1 µM | TGI [50]: 14.2 µM | TGI [51]: 20.2 µM | TGI [52]: 16.6 µM | TGI [53]: 15.7 µM | TGI [54]: 28 µM | TGI [55]: 14.4 µM | TGI [56]: 12.2 µM

NC(=S)N/N=C/C(O[C@@H](/C=N/NC(N)=S)CO)n1cnc2c(N)ncnc21 (stereo partly drawn)
TGI [1]: > 100 µM | TGI [3]: > 100 µM | TGI [4]: > 100 µM | TGI [5]: > 100 µM | TGI [6]: > 100 µM | TGI [7]: > 100 µM | TGI [8]: > 100 µM | TGI [9]: > 100 µM | TGI [10]: 97.7 µM | TGI [11]: > 89.4 µM | TGI [12]: > 100 µM | TGI [13]: > 100 µM | TGI [14]: > 100 µM | TGI [15]: > 100 µM | TGI [16]: > 55.9 µM | TGI [17]: > 100 µM | TGI [18]: > 100 µM | TGI [19]: > 100 µM | TGI [20]: > 100 µM | TGI [21]: > 100 µM | TGI [22]: > 100 µM | TGI [23]: > 100 µM | TGI [24]: > 100 µM | TGI [25]: > 100 µM | TGI [26]: > 100 µM | TGI [57]: > 100 µM | TGI [27]: > 100 µM | TGI [28]: > 100 µM | TGI [29]: > 100 µM | TGI [30]: > 100 µM | TGI [31]: > 100 µM | TGI [32]: > 100 µM | TGI [33]: > 100 µM | TGI [58]: > 72.4 µM | TGI [34]: > 100 µM | TGI [35]: > 100 µM | TGI [37]: > 94.5 µM | TGI [38]: > 61.9 µM | TGI [39]: > 100 µM | TGI [40]: > 100 µM | TGI [41]: > 100 µM | TGI [42]: > 100 µM | TGI [43]: > 100 µM | TGI [44]: > 100 µM | TGI [45]: > 62 µM | TGI [46]: > 100 µM | TGI [47]: > 100 µM | TGI [48]: > 100 µM | TGI [49]: > 100 µM | TGI [50]: > 100 µM | TGI [51]: > 100 µM | TGI [52]: > 100 µM | TGI [59]: > 72.7 µM | TGI [53]: > 53.7 µM | TGI [54]: > 100 µM | TGI [55]: > 100 µM | TGI [56]: > 75.9 µM

COc1ccc(N=Nc2c(-c3ccccc3)nn(C(=O)CC(=O)Nc3ccc(OC)cc3)c2-c2ccccc2)cc1
TGI [2]: > 100 µM | TGI [3]: > 100 µM | TGI [4]: > 100 µM | TGI [5]: 76.1 µM | TGI [6]: > 100 µM | TGI [7]: 50 µM | TGI [8]: 53.1 µM | TGI [9]: > 100 µM | TGI [10]: > 100 µM | TGI [11]: > 100 µM | TGI [12]: > 100 µM | TGI [13]: > 100 µM | TGI [14]: > 100 µM | TGI [15]: > 100 µM | TGI [16]: > 100 µM | TGI [17]: > 100 µM | TGI [18]: > 100 µM | TGI [20]: > 100 µM | TGI [21]: > 100 µM | TGI [22]: > 100 µM | TGI [23]: > 100 µM | TGI [24]: > 100 µM | TGI [25]: > 100 µM | TGI [26]: > 100 µM | TGI [57]: > 100 µM | TGI [27]: > 100 µM | TGI [28]: > 100 µM | TGI [29]: > 100 µM | TGI [30]: > 100 µM | TGI [31]: > 100 µM | TGI [32]: > 100 µM | TGI [58]: > 100 µM | TGI [34]: 37.9 µM | TGI [35]: > 100 µM | TGI [36]: > 100 µM | TGI [37]: > 100 µM | TGI [38]: > 100 µM | TGI [39]: > 100 µM | TGI [40]: > 100 µM | TGI [41]: 59 µM | TGI [42]: > 100 µM | TGI [43]: > 100 µM | TGI [44]: > 100 µM | TGI [45]: > 100 µM | TGI [46]: > 100 µM | TGI [47]: > 100 µM | TGI [48]: > 100 µM | TGI [49]: > 100 µM | TGI [50]: > 100 µM | TGI [52]: > 100 µM | TGI [59]: > 100 µM | TGI [53]: > 100 µM | TGI [54]: > 100 µM | TGI [55]: > 100 µM | TGI [56]: > 100 µM
